From PMC3433420 (PLoS ONE, 2012)
Blank lines part the entries; values can stand above or below the compound they belong to. Residues, ends and D or L forms follow the SMILES beside them.

How the values were obtained:
SH2D2A SH2 domain = SH2D2A SH2 domain (Homo sapiens, UniProt Q9NP31); assay: FP saturation binding assay
SH2D1A SH2 domain = target: T1, SH2D1A SH2 domain (Homo sapiens, UniProt O60880); assay: FP saturation binding assay; conditions: for KD range of recruitment of SH2D1A (SHD1A [sic]): FP saturation assay
T1 sequence (O60880 6-104 limits assumed): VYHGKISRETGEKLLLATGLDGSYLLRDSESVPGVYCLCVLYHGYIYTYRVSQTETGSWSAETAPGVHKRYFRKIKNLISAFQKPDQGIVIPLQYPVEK

[1] = target: T2, PIK3R3-NC tandem SH2 domains (Homo sapiens, UniProt Q92569); assay: FP saturation binding assay; conditions: Protein PIK3R3-NC; FP saturation binding, high-confidence ErbB interactions; mean over replicate hits
T2 construct: the tandem protein was included in our analysis with all internal amino acids linking the domains; 6X His; thioredoxin; made in house; host or cells: E. coli BL21(DE3)pLysS
Experimental: (§1) (See Figure 1A) Rhodamine-labeled peptides were dissolved in assay buffer (20 mM HEPES, 100 mM KCl, 0.1% Tween-20, 5 mM DTT, pH 7.8), diluted to a concentration of 20 nM, and plated into black 384-well plates (Corning, Corning, NY) at 5 µL/well using a Perkin Elmer EP3 pipetting workstation (V&P Scientific, Inc., San Diego, CA). SH2, PTB, and thioredoxin control proteins were plated into the first column of 2 mL 96-well plates (Corning) at a concentration of 20 µM and serially diluted 1∶2 into freezing buffer (300 mM NaCl, 50 mM Na2PO4, pH 8, 20% glycerol v/v) eleven times using a Tecan Freedom EVO 100 workstation (Tecan, Männedorf, Switzerland). For the interaction assay, 5 µL of each of the twelve protein concentrations was added to the peptide-containing 384-well plates via the EP3 resulting in a protein dilution range of 0.002–10 µM and a final volume of 10 µL; peptide concentration was fixed at 10 nM. Peptide/protein samples were incubated for 20 minutes at room temperature in the dark and fluorescence polarization (FP) was measured in an Analyst GT multimode reader (Molecular Devices, Sunnyvale, CA) with excitation and emission wavelengths of 530 nm and 555 nm, respectively. Experimental values were output as millipolarization (mP) units and imported into MATLAB (The MathWorks, Inc., Natick, MA) in which equation (1) was used to determine dissociation constants (KDs) for each protein/peptide pairing by least squares nonlinear regression. [drawing 1] (1)
(§2) FP was described by the following equation: P=Iparallel-IperpendicularIparallel+Iperpendicular, where “P” denotes polarization, and “I” denotes the fluorescent intensity relative to the plane of incident light. Experimental values were output as millipolarization (mP) units and imported into MATLAB where the following equation was used to determine dissociation constants (KDs) for each protein/peptide pairing by least squares nonlinear regression:
(§3) Pobs=Pmax∙ProteinKD+Protein [picture] (1)
Peptides were initially tested for systematic plate effects across protein dilutions and nonspecific binding to thioredoxin by linear regression analysis and any effects were regressed out. The median baseline control polarization value for each plate was then subtracted from each data point to make each binding curve intersect at zero. Plates with excessive variation in baseline control polarizations on both a global and run-specific manner (Dixon’s Q test, p < 0.05) were excluded from further analysis. Outliers in each binding curve were identified and removed using an iterative procedure as follows. The residuals for each fit were used to calculate a global standard deviation of the residuals (GSDR) for each concentration of SH2 domain over all interactions, and individual data points with residuals < or > two GSDR from the global mean residual were flagged as outliers. The outlier with the largest residual from each interaction was removed and nonlinear regression was again performed. This procedure was repeated if additional outliers were identified for an interaction, discarding the interaction if the number of outliers exceeded three. […] In order to further control our false positive rate against hidden confounding variables producing binding artifacts, we sought to determine whether there was a significant relationship between the strength of an interaction and its technical replication rate at our stringent significance and filtering thresholds. We performed logistic regression on the proportion of successful replicates for each interaction query against KD for all interactions (Figure S15A). […] This is related to the observation that the majority of interactions detected by FP are tight (Figure S15B). With this logit model, we assigned a probability to each peptide-protein interaction in our data by using a binomial proportions test to compare the observed versus the expected replication rate at the particular KD of that interaction (Table S4). […]

[2] = target: T3, PLCG1-NC tandem SH2 domains (Homo sapiens, UniProt P19174); assay: FP saturation binding assay; conditions: Protein PLCG1-NC; FP saturation binding, high-confidence ErbB interactions; mean over replicate hits
T3 construct: the tandem protein was included in our analysis with all internal amino acids linking the domains; 6X His; thioredoxin; made in house; host or cells: E. coli BL21(DE3)pLysS
T3 sequence (P19174 550-756 limits assumed): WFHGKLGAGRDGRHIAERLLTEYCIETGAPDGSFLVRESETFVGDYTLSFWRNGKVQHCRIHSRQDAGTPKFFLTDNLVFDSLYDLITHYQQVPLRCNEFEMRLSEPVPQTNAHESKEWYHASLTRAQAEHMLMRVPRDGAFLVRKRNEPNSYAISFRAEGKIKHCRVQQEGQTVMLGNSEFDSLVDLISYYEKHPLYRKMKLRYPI
Experimental: as §1, with “Peptide/protein samples were incubated for 20 minutes at room temperature in the dark and fluorescence polarization (FP) was measured in an Analyst GT multimode reader (Molecular Devices, Sunnyvale, CA) with excitation and emission wavelengths of 530 nm and 555 nm, respectively.” left out
as §2, §3
Peptides were initially tested for systematic plate effects across protein dilutions and nonspecific binding to thioredoxin by linear regression analysis and any effects were regressed out. The median baseline control polarization value for each plate was then subtracted from each data point to make each binding curve intersect at zero. Plates with excessive variation in baseline control polarizations on both a global and run-specific manner (Dixon’s Q test, p < 0.05) were excluded from further analysis. Outliers in each binding curve were identified and removed using an iterative procedure as follows. The residuals for each fit were used to calculate a global standard deviation of the residuals (GSDR) for each concentration of SH2 domain over all interactions, and individual data points with residuals < or > two GSDR from the global mean residual were flagged as outliers. The outlier with the largest residual from each interaction was removed and nonlinear regression was again performed. This procedure was repeated if additional outliers were identified for an interaction, discarding the interaction if the number of outliers exceeded three. […] In order to further control our false positive rate against hidden confounding variables producing binding artifacts, we sought to determine whether there was a significant relationship between the strength of an interaction and its technical replication rate at our stringent significance and filtering thresholds. We performed logistic regression on the proportion of successful replicates for each interaction query against KD for all interactions (Figure S15A). […] “High-confidence” FP interactions are defined as those having 1 - P(Observed Replication Rate | Expectation) > 0.5 and that have replicated at least twice across independent FP runs. […] The compiled FP data were organized into heatmaps generated by MATLAB and relative binding strength (µM). Peptides without at least one positive hit were classified as “no interaction” if there was no homologous sequence (i.e. identical at the +1 to +4 positions relative to the phosphotyrosine) that produced a positive interaction within the ErbB receptor family.

[3] = target: PIK3R2-NC tandem SH2 domains (Homo sapiens, UniProt O00459); assay: FP saturation binding assay
PIK3R3-C SH2 domain = target: T4, PIK3R3-C SH2 domain (Homo sapiens, UniProt Q92569); assay: biochemical; type: binding; conditions: Protein PIK3R3-C; FP saturation binding, high-confidence ErbB interactions; mean over replicate hits
T4 construct: thioredoxin; made in house; host or cells: E. coli BL21(DE3)pLysS

RASA1-N SH2 domain = target: T5, RASA1-N SH2 domain (Homo sapiens, UniProt P20936); assay: FP saturation binding assay
T5 sequence (P20936 181-272 limits assumed): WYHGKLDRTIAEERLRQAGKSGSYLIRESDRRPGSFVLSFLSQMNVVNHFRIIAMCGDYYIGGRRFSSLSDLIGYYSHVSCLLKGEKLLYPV

SH2D1B SH2 domain = target: T6, SH2D1B SH2 domain (Homo sapiens, UniProt O14796); assay: FP saturation binding assay; conditions: FP saturation assay
T6 sequence (O14796 5-101 limits assumed): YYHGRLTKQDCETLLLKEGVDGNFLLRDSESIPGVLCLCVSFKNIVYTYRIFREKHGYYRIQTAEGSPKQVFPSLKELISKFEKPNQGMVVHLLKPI

SH2D2A SH2 domain, sequence (Q9NP31 95-186 limits assumed): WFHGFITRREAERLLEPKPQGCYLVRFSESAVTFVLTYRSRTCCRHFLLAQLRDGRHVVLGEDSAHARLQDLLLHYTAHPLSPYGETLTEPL
PIK3R2-NC tandem SH2 domains, sequence (O00459 330-716 limits assumed): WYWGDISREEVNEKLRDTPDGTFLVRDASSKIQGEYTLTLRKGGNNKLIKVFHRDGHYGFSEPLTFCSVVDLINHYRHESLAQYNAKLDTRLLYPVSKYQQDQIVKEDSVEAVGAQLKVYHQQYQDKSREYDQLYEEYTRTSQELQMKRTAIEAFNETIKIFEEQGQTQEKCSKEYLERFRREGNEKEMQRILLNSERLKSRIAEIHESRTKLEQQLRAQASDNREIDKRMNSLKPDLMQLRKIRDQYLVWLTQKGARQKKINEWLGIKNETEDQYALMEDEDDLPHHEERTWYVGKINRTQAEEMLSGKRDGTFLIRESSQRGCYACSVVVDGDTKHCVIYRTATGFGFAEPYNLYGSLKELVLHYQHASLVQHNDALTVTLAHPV

Compound: CC[C@H](C)[C@H](NC(=O)[C@H](CCCNC(=N)N)NC(=O)[C@H](Cc1c[nH]cn1)NC(=O)[C@@H](N)CC(C)C)C(=O)N[C@@H](Cc1ccc(OP(=O)(O)O)cc1)C(=O)N[C@H](C(=O)N[C@@H](Cc1c[nH]cn1)C(=O)N[C@@H](CCC(N)=O)C(=O)N[C@@H](CO)C(=O)N[C@@H](CC(=O)O)C(=O)N[C@H](C(=O)N[C@@H](Cc1c[nH]c2ccccc12)C(=O)N[C@@H](CC(=O)O)C(=O)O)C(C)C)[C@@H](C)O [ErbB1 891 13-mer] (HELM PEPTIDE1{L.H.R.I.[O=C([C@H](Cc1ccc(OP(=O)(O)O)cc1)N[*:1])[*:2]].T.H.Q.S.D.V.W.D}$$$$V2.0)
Kd (SH2D2A SH2 domain): 13.4 µM

Compound: CC[C@H](C)[C@H](NC(=O)CNC(=O)[C@H](CC(=O)O)NC(=O)[C@H](Cc1ccc(OP(=O)(O)O)cc1)NC(=O)[C@@H]1CCCN1C(=O)[C@H](CCCCN)NC(=O)[C@H](CO)NC(=O)CN)C(=O)N1CCC[C@H]1C(=O)N[C@@H](C)C(=O)N[C@@H](CO)C(=O)N[C@@H](CCC(=O)O)C(=O)N[C@@H](CC(=O)O)C(=O)O [ErbB1 915 13-mer] (HELM PEPTIDE1{G.S.K.P.[O=C([C@H](Cc1ccc(OP(=O)(O)O)cc1)N[*:1])[*:2]].D.G.I.P.A.S.E.D}$$$$V2.0)
Kd (SH2D1A SH2 domain): 14.5 µM
Kd (SH2D2A SH2 domain): 4.77 µM

Compound: CC[C@H](C)[C@H](NC(=O)[C@H](Cc1ccc(OP(=O)(O)O)cc1)NC(=O)[C@H](CCC(=O)O)NC(=O)[C@@H]1CCCN1C(=O)[C@@H](NC(=O)[C@@H]1CCCN1)C(C)C)C(=O)N[C@@H](CC(N)=O)C(=O)N[C@@H](CCC(N)=O)C(=O)N[C@@H](CO)C(=O)N[C@H](C(=O)N1CCC[C@H]1C(=O)N[C@@H](CCCCN)C(=O)N[C@@H](CC(=O)O)C(=O)O)C(C)C [ErbB1 1092 13-mer]
Kd [1]: 8.64 µM
Kd [2]: 7.58 µM
Kd [3]: 11.2 µM
Kd (SH2D2A SH2 domain): 10.9 µM

Compound: NCCCC[C@H](NC(=O)[C@@H]1CCCN1C(=O)[C@H](Cc1ccccc1)NC(=O)[C@H](Cc1ccccc1)NC(=O)[C@H](CC(=O)O)NC(=O)[C@H](CCC(N)=O)NC(=O)[C@H](CCC(N)=O)NC(=O)[C@H](Cc1ccc(OP(=O)(O)O)cc1)NC(=O)[C@H](CC(=O)O)NC(=O)[C@@H]1CCCN1C(=O)[C@H](CC(N)=O)NC(=O)[C@@H](N)CC(=O)O)C(=O)N[C@@H](CC(=O)O)C(=O)O [ErbB1 1172 13-mer] (HELM PEPTIDE1{D.N.P.D.[O=C([C@H](Cc1ccc(OP(=O)(O)O)cc1)N[*:1])[*:2]].Q.Q.D.F.F.P.K.D}$$$$V2.0)
Kd (PIK3R3-C SH2 domain): 12.6 µM
Kd [2]: 7.79 µM
Kd (RASA1-N SH2 domain): 4.17 µM

Compound: CSCC[C@H](NC(=O)[C@H](Cc1ccc(OP(=O)(O)O)cc1)NC(=O)[C@H](CCC(=O)O)NC(=O)[C@H](Cc1ccc(O)cc1)NC(=O)[C@H](CCC(=O)O)NC(=O)[C@@H](N)CCC(=O)O)C(=O)N[C@@H](CC(N)=O)C(=O)N[C@@H](CCCNC(=N)N)C(=O)N[C@@H](CCCNC(=N)N)C(=O)N[C@@H](CCCNC(=N)N)C(=O)N[C@@H](CCCNC(=N)N)C(=O)N[C@@H](Cc1c[nH]cn1)C(=O)N[C@@H](CC(=O)O)C(=O)O [ErbB3 1199 13-mer] (HELM PEPTIDE1{E.E.Y.E.[O=C([C@H](Cc1ccc(OP(=O)(O)O)cc1)N[*:1])[*:2]].M.N.R.R.R.R.H.D}$$$$V2.0)
Kd (SH2D2A SH2 domain): 13.9 µM

KD range of recruitment of SH2D1A (SHD1A [sic]) (SH2D1A SH2 domain): in the nM KD range
KD range of recruitment of SH2D1B (SH2D1B SH2 domain): in the nM KD range
Compound: FGTVpYKGIWVPEd [ErbB4 pY733]

KD range of recruitment of SH2D1A (SHD1A [sic]) (SH2D1A SH2 domain): in the nM KD range
KD range of recruitment of SH2D1B (SH2D1B SH2 domain): in the nM KD range
Compound: LDEApYVMAGVGS [ErbB2 pY772]
